# Laboratory results reported in patent publication US20050038022A1, “Method for treatment of cancer and compositions for use therein” (Unisearch Limited, priority 2001, published 2005).
# Tests used:
# Hep3-B = test: [3H]thymidine incorporation assay, Hep3-B; format: cell-based, human; settings: 5 days
# Experimental: (§1) HepG2, Hep3-B, Hep1-6, SKHEP-1, PLC/PRF/5, and HTC cells were obtained from European Collection of Cell Cultures (ECACC; U.K), Novikoff was obtained from Cancer Research Centre (DKFZ) Heidelberg, Germany. Cells were cultured in MEM or DMEM supplemented with 10% FBS, 50 units/ml penicillin, 50 units/ml streptomycin, 25 μg/ml amphotericin B (Gibco, Grand Island, N.Y.) and maintained subconfluent at 37° C. in humidified incubators containing 5% CO2. Albendazole (Sigma, Australian subsidiary) was dissolved in absolute ethanol at concentrations that were 1000-fold higher than the final medium concentration.
# SKHEP-1 [1] = test: [3H]thymidine incorporation assay, SKHEP-1; format: cell-based, human
# Experimental: as §1
# PLC/PRF/5 = test: [3H]thymidine incorporation assay, PLC/PRF/5; format: cell-based, human; settings: 5 days
# Experimental: as §1
# HTC = test: [3H]thymidine incorporation assay, HTC; format: cell-based, rat; settings: 5 days
# Experimental: as §1
# Hep1-6 = test: [3H]thymidine incorporation assay, Hep1-6; format: cell-based, mice; settings: 5 days
# Experimental: as §1
# [2] = system: liver (HepG2, Hep3B, PLC/PRF/5, SKHEP-1, Hep1-6, HTC, Novikoff) and colorectal cancer (C-170, HT-29 and LOVO) cell lines; test: [3H]thymidine incorporation, liver and colorectal cancer cell lines (summary); format: cell-based, human and animal; settings: liver or colorectal cancer cells
# Excerpt: The present inventors tested BZs and particularly albendazole against a range of liver (HepG2, Hep3B, PLC/PRF/5, SKHEP-1, Hep1-6, HTC, Novikoff) and colorectal cancer (C-170, HT-29 and LOVO) cell lines.
# SKHEP-1 cells [3] = test: Cell counts (trypan blue exclusion); format: cell-based, human
# Experimental: SKHEP-1 cells (2.5×10^4) were plated in six well plates. The cell treatment procedure was as described for the thymidine assay. At the end of the treatment period (1, 3 or 5 days), cells were trypsinized and counted with a hemocytometer using the trypan blue exclusion method. In all experiments, cells treated with the medium containing 0.1% ethanol were taken as the control for albendazole treated cells. All counts were obtained in quadruplicate and each experiment was repeated at least twice.
# SKHEP-1 cells [4] = test: Cell cycle analysis by flow cytometry; format: cell-based, human; settings: 3 days (FIG. 3)
# Experimental: SKHEP-1 cells (5×10^4) were plated onto six-well tissue culture plates. Triplicate samples were treated with the indicated concentrations of albendazole (100, 250 and 1000 nM). The medium was changed everyday. After 72 h the relevant group of cells were collected, washed twice with phosphate buffer and treated with ribonuclease, Triton X-100 and propidium iodide (Sigma) based on the method described by Taylor [12]. The percentage of cells within the G1, S, and G2-M phases of the cell cycle were determined using a FACScan flow cytometer (Becton Dickinson FACSort) and Multifit LT cell cycle analysis software (Verity Software INC.)
# NIH:OVCAR-3 = test: Cell count, ovarian cancer cell line; format: cell-based, human; settings: OVCAR-3, 0.1 and 1 micromoles/L, evident from day 1
# Experimental: Cells were treated with either the medium alone (control) or 0.1 and 1 micromoles/L of albendazole for 0, 1, 3, 6 or 10 days and the number of viable cells counted. […] This was evident from day 1 after the treatment
# PC3, LNCap and Du 145 = test: Albendazole/ABS proliferation test, prostate cancer cells; format: cell-based, human; settings: 3 human prostate cell lines
# Experimental: (§2) In order to be able to test ABS, a proper solvent had to be found. […] Therefore to allow direct comparison between the 2 compounds, all subsequent experiments were run using 0.5% DMSO for both ABS and albendazole. In the cell lines examined, albendazole produced very similar results to what we had previously reported for the drug in liver cancer cells.
# (§3) Both albendazole and ABS were tested side by side against various cell lines as follows: • Liver—HepGZ Hep3B, SKHEP-1 • Colorectal—170, LOVO, HT-29 • Prostate—PC3, LNCap, Du145 • Leukeamic—HL60
# (§4) Cells were treated with various concentrations of each compound for a period of 5 days.
# [5] = system: liver, colorectal, prostate and leukeamic cell lines; test: Albendazole/ABS side by side in various cell lines (general); format: cell-based; settings: 5 days
# Experimental: as §2, §3
# The fist 9 cell lines were used to compare effectiveness and potency while, the last one was used to assess toxicity on bone marrow (as a rough guide).
# as §4
# [6] = system: ovarian cancer cells (NIH:OVCAR-3); test: DNA laddering (apoptosis), ovarian cancer cells; format: cell-based, human
# Experimental: To find out the way albendazole works as an anticancer drug, a large variety of tests can be performed. One of the first is to see if albendazole induces apoptosis. This again is tested in several ways, one of the most common is to check for DNA laddering. […] This is the first time that the induction of apoptosis by albendazole has been reported.
# HepG2 = test: Combination with methimazole (MT), HepG2 growth; format: cell-based; settings: HepG2, albendazole alone 0.25, 0.1 and 0.01uM, 5 days
# Experimental: (§5) The effect of inhibition of metabolism of albendazole on its antiproliferative activity was investigated using […] and the methimazole as an inhibitor of albendazole
# (§6) 5000 cells each of HepG2 and S EP1 were plated into 24 wells plates and treated for 5 days with various concentrations of albendazole alone or together with MT.
# SKHEP-1 [7] = test: Combination with methimazole (MT), SKHEP-1 growth; format: cell-based; settings: SKHEP-1, albendazole 0.25 μM, 5 days
# Experimental: as §5, §6
# HCC cell lines = test: [3H]thymidine incorporation, all HCC cell lines (summary); settings: 1000 nM albendazole
# Experimental: For the study of [^3H]thymidine incorporation, adherent cells (5-10×10^4) were plated onto 24-well Corning tissue culture dishes and were exposed to culture medium (5% FBS) containing the vehicle (0.1% ethanol) or different concentrations of albendazole (10^−8 to 10^−6 M). For Novikoff, a detached rat cell line, 2500 cells were suspended in 2 ml of DMEM (5% FBS) and kept under the same condition as for attached cells. Media were replaced with fresh media on alternate days. At the end of the treatment period (5 days), cell cultures were assayed for thymidine incorporation by the addition of 0.5 μCi of [^3H]thymidine (60 Ci/mmol. ICN Biochem, Irvine, Calif.) to each well for the last 4 h of culture. The amount of radioactivity incorporated into cells was determined using a β-scintillation counter. […] For the recovery experiments, SKHEP-1 cells were treated for 1 day with different concentrations of albendazole and then either assayed for [^3H]thymidine incorporation or the medium was replaced and the cells treated with fresh medium with out the drug for a further 4 days at the end of which, [^3H] thymidine incorporation assay was performed.
# [^3H]Thymidine incorporation assay was used to determine the effect of albendazole on cell proliferation in a number of human (HepG2, Hep3-B, PLC/PRF/5, SKHEP-1), rat (HTC and Novikoff) and mice (Hep1-6) HCC cell lines.
structure (smiles),measurement,setting,value
"CCCSc1ccc2nc(NC(=O)OC)[nH]c2c1 [albendazole, methyl 5-propylthio-1H-benzimidazole-2-yl carbamate]",[3H]thymidine incorporation,Hep3-B; albendazole 10 nM,105.7 ± 8.6 % control
same,[3H]thymidine incorporation,Hep3-B; albendazole 100 nM,68.5 ± 5.7 % control
same,[3H]thymidine incorporation,Hep3-B; albendazole 500 nM,22.6 ± 1.8 % control
same,[3H]thymidine incorporation,Hep3-B; albendazole 1000 nM,9.3 ± 0.7 % control
same,inhibition at 1 µM,"SKHEP-1 [1]; Homo sapiens, SK-HEP1, 120 h, SKHEP-1, 1000 nM albendazole, 5 days",99.4%
same,thymidine incorporation after 1 day exposure,"SKHEP-1 [1]; SKHEP-1, 1 day, concentrations of 250 nM and over (FIG. 1a)",profound inhibition of thymidine incorporation
same,[3H]thymidine incorporation,"SKHEP-1 [1]; SKHEP-1, albendazole 10 nM, 5 days",89.6 ± 6.1 % control
same,[3H]thymidine incorporation,"SKHEP-1 [1]; SKHEP-1, albendazole 100 nM, 5 days",63.7 ± 3.1 % control
same,[3H]thymidine incorporation,"SKHEP-1 [1]; SKHEP-1, albendazole 500 nM, 5 days",4.5 ± 1.1 % control
same,[3H]thymidine incorporation,"PLC/PRF/5; PLC/PRF/5, albendazole 10 nM",92.7 ± 4.7 % control
same,[3H]thymidine incorporation,"PLC/PRF/5; PLC/PRF/5, albendazole 100 nM",69.4 ± 5.2 % control
same,[3H]thymidine incorporation,"PLC/PRF/5; PLC/PRF/5, albendazole 500 nM",26.9 ± 2.7 % control
same,[3H]thymidine incorporation,"PLC/PRF/5; PLC/PRF/5, albendazole 1000 nM",18.4 ± 2.1 % control
same,[3H]thymidine incorporation,HTC; albendazole 10 nM,98.4 ± 7.5 % control
same,[3H]thymidine incorporation,HTC; albendazole 100 nM,86.0 ± 6.9 % control
same,[3H]thymidine incorporation,HTC; albendazole 500 nM,28.5 ± 2.2 % control
same,[3H]thymidine incorporation,HTC; albendazole 1000 nM,11.4 ± 1.3 % control
same,[3H]thymidine incorporation,"Hep1-6; Hep1-6, albendazole 10 nM",97.7 ± 4.3 % control
same,[3H]thymidine incorporation,"Hep1-6; Hep1-6, albendazole 100 nM",79.5 ± 3.2 % control
same,[3H]thymidine incorporation,"Hep1-6; Hep1-6, albendazole 500 nM",28.1 ± 2.5 % control
same,[3H]thymidine incorporation,"Hep1-6; Hep1-6, albendazole 1000 nM",5.6 ± 0.6 % control
same,concentration at which inhibitory activity starts,[2],around 0.1 micromoles/L
same,number of viable cells compared to control,"SKHEP-1 cells [3]; SKHEP-1, 1000 nM, p<0.001",significantly reduced in number
same,number of viable cells,"SKHEP-1 cells [3]; SKHEP-1, 1, 3 or 5 days, 100, 500 or 1000 nM (FIG. 2)",dose dependent decline in the number of cells
same,effect on cell cycle distribution,"SKHEP-1 cells [4]; SKHEP-1, 250 nM",accumulation of cells in the G0-G1 phase
same,effect on cell cycle distribution,"SKHEP-1 cells [4]; SKHEP-1, 1000 nM",arrest and accumulation of cells in the G2-M phase
same,number of viable cells,NIH:OVCAR-3,profound reduction in cell number
same,sensitivity of prostate cell lines in culture,"PC3, LNCap and Du 145",quite sensitive
same,antiproliferative activity at 0.25 micromoles/L,[5]; 0.25 micromoles/L,dramatically increasing
same,inhibition at 1 µM,"[5]; 120 h, 1 micromoles/L",~100%
same,concentration at which antiproliferative activity becomes evident,"[5]; 0.5% DMSO, in general",0.01 µmol/L
same,DNA laddering (apoptosis),[6],induction of DNA laddering
same,growth inhibition,HepG2,no growth inhibition
same,growth inhibition,SKHEP-1 [7],profoundly inhibited
same,thymidine incorporation,HCC cell lines,less than 20 % of control values
